Measurements as given in US20200308184A1, “TETRAPYRROLIC CONJUGATES AND USES THEREOF FOR IMAGING” (Health Research, Inc., priority 2017, published 2020).
Like-named read-outs stand apart in the source and are kept apart here.

Key:
[1] = T1 and T2 relaxivities of compounds 4, 9 & 14 on 4.7 Tesla preclinical MRI; format: physicochemical; details: T1 relaxivity, 37C, in PBS
Method: Characterization of MR imaging efficacy for compounds 4, 9 & 14. MR imaging was performed on a 4.7 Tesla preclinical MRI using the ParaVision 3.0.2 acquisition platform (Bruker Biospin, Billerica Mass.). In vitro relaxivities were acquired using the Bruker G060 gradient insert and a quadrature radiofrequency coil (35 mm ID, m2m Imaging, Cleveland Ohio). In vivo imaging in rat models utilized larger Accustar® shield gradients (150 mm ID) and a quadrature radiofrequency coil (72 mm ID, Bruker Biospin).
T1 and T2 relaxivities for compounds 4, 9 & 14 were acquired at 37C. Samples were diluted in PBS with concentrations ranging from 50 to 200 μM and transferred to NMR tubes for imaging. A tube containing 1× PBS was included as a “0 μM control”. T1 relaxation rates of serial dilutions were measured using an inversion-recovery TrueFISP acquisition with the following parameters: TE/TR=1.5/3.0 ms, flip angle=30°, inv. Repetition time=10 s, segments=8, frames=100. T2 relaxation rates were measured using a multi-echo, Carr-Purcell-Meiboom-Gill (CPMG) spin-echo sequence with a fixed TR of 3000 ms and TE times ranging from 20-1200 ms in 20 ms increments (60 echoes). The relaxation rate of each sample calculated using non-linear regression analysis routines developed in MATLAB (MathWorks, Natick, Mass.) and relaxivities were then calculated by linear regression (concentration vs. relaxation rate).

[2] = published value, 37 C; cited from earlier work
Ward rat tumor = details: HPPH alone, previous findings; cited from earlier work

| SMILES | rl at 4.7T [1] [mM/s] | rl at 4.7T [2] [mM/s] | other results |
| --- | --- | --- | --- |
| CCCCCCOC(C)c1c(C)c2cc3nc(c4c5[nH]c(cc6nc(cc1[nH]2)C(C)=C6CC)c(C)c5C(=O)C4)[C@@H](CCC(=O)NCCNC(=O)CN1CCN(CC(=O)[O-])CCN(CC(=O)[O-])CCN(CC(=O)[O-])CC1)C3C.[Gd+3] (some centres unmarked) [compound 4] | 4.44 |  |  |
| CCCCCCOC(C)c1c(C)c2cc3nc(c4c5[nH]c(cc6nc(cc1[nH]2)C(C)=C6CC)c(C)c5C(=O)C4)[C@@H](CCC(=O)N(CC(=O)NCCNC(=O)CN1CCN(CC(=O)[O-])CCN(CC(=O)[O-])CCN(CC(=O)[O-])CC1)CC(=O)NCCNC(=O)CN1CCN(CC(=O)[O-])CCN(CC(=O)[O-])CCN(CC(=O)[O-])CC1)C3C.[Gd+3].[Gd+3] (some centres unmarked) [compound 9] | 10.65 |  |  |
| O=C([O-])CN(CCN(CC(=O)[O-])CC(=O)O)CCN(CC(=O)[O-])CC(=O)O.[Gd+3] [Gd-DTPA, Gadolinium-diethyline-triamine pentacetic-acid] |  | 3.2 |  |
| O=C([O-])CN1CCN(CC(=O)[O-])CCN(CC(=O)O)CCN(CC(=O)[O-])CC1.[Gd+3] [Gd-DOTA] |  | 2.8 |  |
| CCCCCCOC(C)c1c(C)c2cc3nc(c4c5[nH]c(cc6nc(cc1[nH]2)C(C)=C6CC)c(C)c5C(=O)C4)[C@@H](CCC(=O)O)[C@@H]3C (some centres unmarked) [HPPH, 3-(1-hexyloxyethyl) pyropheophorbide-a] |  |  | time of peak concentrations (Ward rat tumor): 24 h |
